Assay results reported in patent publication US7635693B2, “Methods for preventing and treating cancer using N-thiolated β-lactam compounds and analogs thereof” (University of South Florida, priority 2002, dated 2009).
Like-named read-outs stand apart in the source and are kept apart here.

Experiments:
[1] = tested on: BID; details: Jurkat T cells, 50 μM
Description: Human Jurkat T cells were cultured in RPMI 1640, supplemented with 10% fetal calf serum, 100 units/ml of penicillin and 100 μg/ml of streptomycin. Human breast cancer MCF-7 and MDA-MB-231 cells, human prostate cancer PC-3 cells, and human head-and-neck cancer PCI-13 cells were grown in Dulbecco's modified Eagle's medium containing 10% fetal calf serum, penicillin and streptomycin. All the cell lines were maintained in a 5% CO2 atmosphere at 37° C. A whole cell extract was prepared as described previously (An et al., 1998). Briefly, cells are harvested, washed with PBS and homogenized in a lysis buffer (50 mM Tris-HCl, pH 8.0, 5 mM EDTA, 150 mM NaCl, 0.5% NP-40, 0.5 mM PMSF, and 0.5 mM dithiothreitol) for 30 min at 4° C. After that, the lysates are centrifuged at 14,000×g for 30 min and the supernatants are collected as whole cell extracts. Equal amounts of protein extract (50 μg) are resolved by SDS-polyacrylamide gel electrophoresis and then transferred to a nitrocellulose membrane (Schleicher & Schuell, Keene, N H) using a Semi-Dry Transfer System (BIO-RAD; Hercules, Calif.). The enhanced chemiluminescence (ECL) Western Blot analysis is then performed using specific antibodies to the proteins of interest.

[2] = tested on: MDA-MB-231 cells; experiment: MTT assay, MDA-MB-231; format: cell-based, human; details: MDA-MB-231, 50 μM, 24 hours
Description: MCF-7, MDA-MB-231, PC-3 and PCI-13 cells were grown to 50% confluency in a 24 well plate. […] A stock 5 mg/ml of MTT in serum-free media was then added to the cell cultures at a final concentration of 1 mg/ml, followed by a 3 hour incubation at 37° C. After cells crystallized, the media was removed and DMSO added to dissolve the metabolized MTT product. The absorbance was then measured on a Wallac Victor 1420 Multilabel counter at […].

[3] = tested on: PARP; details: YT cells
Description: Human Jurkat T cells and human prostate cancer LNCaP cells were cultured in RPMI 1640 medium, supplemented with 10% fetal bovine serum, 100 units/ml penicillin, and 100 μg/ml streptomycin. Human YT cells were cultured in RPMI 1640 medium supplemented with 1 mM MEM sodium pyruvate solution, 0.1 mM MEM non-essential amino acids solution, 10% fetal bovine serum, 100 units/ml penicillin, and 100 μg/ml streptomycin. All cell lines were maintained at 37° C. in a humidified incubator with an atmosphere of 5% CO2. […] Briefly, cells were harvested, washed with PBS and homogenized in a lysis buffer (50 mM Tris-HCl, pH 8.0, 5 mM EDTA, 150 mM NaCl, 0.5% NP-40, 0.5 mM phenylmethylsulfonyl fluoride, and 0.5 mM dithiothreitol) for 30 min at 4° C. Afterwards, the lysates were centrifuged at 12000×g for 15 min at 4° C. and the supernatants collected as whole-cell extracts. Equal amounts of protein extract (60 μg) were resolved by SDS-polyacrylamide gel electrophoresis and transferred to a nitrocellulose membrane (Schleicher & Schuell, Keene, N. H.) using a Semi-Dry Transfer System (Bio-Rad, Hercules, Calif.). The enhanced chemiluminescence Western blot analysis was then performed using specific antibodies to the proteins of interest.

[4] = tested on: LNCaP cells; details: LNCaP cells in soft agar, 50 μM, 21 day-incubation
Description: The soft agar assay was performed as described previously (Menter D G, Sabichi A L, Lippman S M., 2000, Selenium effects on prostate cell growth. Cancer Epidemiol Biomarkers Prev 9:1171-82) with a few modifications. In brief, in a six-well plate, a bottom feeder layer (0.6% agar) was prepared with DMEM media containing 10% fetal bovine serum, 100 units/ml penicillin, and 100 μg/ml streptomycin. […] Plates were incubated at 37° C. in 5% CO2 in a humidified incubator for three weeks. MTT (1 mg/ml) was added to each well and incubated overnight to allow complete formation of purple formazan crystals. The plates were then scanned and photographed, and the number of colonies was quantified by Quantity one v.4.0.3 software (Bio-Rad, Hercules, Calif.).

[5] = tested on: VA-13 cells; details: 50 μM
Description: (§1) (FIG. 19A) MTT assay. (FIG. 19B) Cell-free caspase-9 activity assay. A protein extract (20 μg) is incubated with 20 μM Ac-LEHD-AFC (the specific caspase-9 substrate) in a 96-well plate at 37° C. for 2 h. After incubation, the liberated florescent AFC groups are measured by Wallac Victor 1420 Multilabel counter with 405/535 nm filters. […] Both intact and active forms of caspase-3 are indicated. […] Both detached and attached populations of Va-13 or WI-38 cells are collected, and used for nuclear staining assay with DNA staining dye Hoechst 33342.
(§2) An MTT assay was performed in a 96-well plate, which measures cellular mitochondrial function and thereby cytotoxicity.

[6] = tested on: WI-38 cells; details: 50 μM
Description: as §1, §2

[7] = tested on: caspase-3; details: 50 μM, up to 48 hours
Description: as §1

[8] = tested on: caspase-9; details: 50 μM, up to 48 hours
Description: as §1

[9] = tested on: VA-13 cells; details: detached VA-13 cells, 50 μM
Description: as §1
(§3) To assay nuclear morphology, both the detached or remaining attached solid tumor cells were washed with PBS, fixed with 70% ethanol for 1 hour, and stained with Hoechst 33342 (50 μM) for 30 minutes. The nuclear morphology of cells was visualized by a fluorescence microscope.

[10] = tested on: WI-38 cells; details: 50 μM; remark: listed apart in the source
Description: as §1, §3

[11] = tested on: Jurkat T cells; details: 50 μM, cited from earlier work

With `COC1C(=O)N(SC)C1c1ccccc1Cl` (racemic) [lactam 1] the “time at which 15-kDa fragment of Bid was first observed” value [1] was 2 h, the “time of peak of 15-kDa fragment of Bid” value [1] was 6 h and the “decrease of cellular viability (MTT)” value [2] was 80%. The PARP cleavage ([3]; 30 μM, 3, 6, or 24 h) was “no PARP cleavage was observed”, the PARP cleavage ([3]; at even 50 μM, 24 h) was “no PARP cleavage was detectable” and the “inhibition of colony formation” value [4] was 91%. For the same molecule, the “cell growth (MTT)” value ([5]; 6 or 24 hours) was “completely inhibited growth”, the viable cells ([5]; 120 hours) was “no viable VA-13 cells” and the “cell growth (MTT)” value ([6]; 24 hours) was “slightly inhibited the cell growth”. The cell population ([6]; 120 hours) was “doubled”, the “processing and activation of caspase-3” value ([7]; VA-13 cells) was “detected only in the transformed, but not normal, human cells” and the “processing and activation of caspase-3” value ([7]; WI-38 cells) was “detected only in the transformed, but not normal, human cells”. For the same molecule, the “cell-free caspase-9 activity” value ([8]; VA-13 cells) was “activated cell-free caspase-9 activity”, the “cell-free caspase-9 activity” value ([8]; WI-38 cells) was “no caspase-9 activation was detected” and the “nuclear morphology (Hoechst 33342)” value [9] was “apoptotic nuclear condensation and fragmentation”. For the same molecule, the “nuclear morphology (Hoechst 33342)” value [10] was “remained attached with normal nuclei”, the sub-G1 population ([11]; 12 h (Smith et al., 2002)) was 10% and the sub-G1 population ([11]; 24 h (Smith et al., 2002)) was 16%.
